Assays:
[1] = target: T1, human TLR7 (Homo sapiens, UniProt Q9NYK1); assay: TLR7 NFκB-luc cellular reporter assay in transiently transfected HEK293 cells; assay type: cell-based; details: lowest effective concentration; HEK293 cells transfected with wild type TLR7 and NFκB-luc reporter, 6 h incubation
T1 construct: expressed in transfected cells; host or cells: HEK293
T1 sequence (Q9NYK1 27-1049): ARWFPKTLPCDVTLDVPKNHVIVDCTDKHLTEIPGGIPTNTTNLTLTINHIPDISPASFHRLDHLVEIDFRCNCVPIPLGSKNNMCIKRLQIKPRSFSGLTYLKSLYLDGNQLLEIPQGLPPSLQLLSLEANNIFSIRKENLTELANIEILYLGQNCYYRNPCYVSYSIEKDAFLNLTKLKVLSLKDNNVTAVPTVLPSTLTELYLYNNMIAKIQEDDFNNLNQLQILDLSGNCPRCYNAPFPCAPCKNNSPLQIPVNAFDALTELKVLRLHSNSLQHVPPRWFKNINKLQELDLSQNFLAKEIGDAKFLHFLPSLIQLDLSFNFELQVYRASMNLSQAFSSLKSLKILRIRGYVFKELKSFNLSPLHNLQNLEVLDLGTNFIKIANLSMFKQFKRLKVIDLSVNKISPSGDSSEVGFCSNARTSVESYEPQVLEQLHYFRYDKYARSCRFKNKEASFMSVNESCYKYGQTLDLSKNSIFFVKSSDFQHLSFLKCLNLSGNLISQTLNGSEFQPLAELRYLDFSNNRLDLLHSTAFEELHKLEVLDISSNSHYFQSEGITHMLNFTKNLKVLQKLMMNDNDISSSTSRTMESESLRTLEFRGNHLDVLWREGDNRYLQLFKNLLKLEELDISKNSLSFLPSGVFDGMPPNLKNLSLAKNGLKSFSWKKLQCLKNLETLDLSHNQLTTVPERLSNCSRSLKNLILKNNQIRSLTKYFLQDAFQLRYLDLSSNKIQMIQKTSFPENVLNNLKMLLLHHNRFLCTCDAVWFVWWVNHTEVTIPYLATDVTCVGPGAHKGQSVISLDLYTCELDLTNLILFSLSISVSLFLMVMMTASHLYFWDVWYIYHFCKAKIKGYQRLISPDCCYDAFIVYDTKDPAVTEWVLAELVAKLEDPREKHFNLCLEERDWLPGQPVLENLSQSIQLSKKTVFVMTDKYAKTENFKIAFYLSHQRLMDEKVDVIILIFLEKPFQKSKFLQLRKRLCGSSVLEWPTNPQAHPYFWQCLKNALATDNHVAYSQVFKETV
Protocol: (§1) The ability of compounds to activate human TLR7 and/or TLR8 was assessed in a cellular reporter assay using HEK293 cells transiently transfected with a TLR7 or TLR8 expression vector and NFκB-luc reporter construct. In one instance, the TLR expression construct expresses the respective wild type sequence or a mutant sequence comprising a deletion in the second leucine-rich repeat of the TLR.
(§2) HEK293 cells were grown in culture medium (DMEM supplemented with 10% FCS and 2 mM Glutamine). For transfection of cells in 10 cm dishes, cells were detached with Trypsin-EDTA, transfected with a mix of CMV-TLR7 or TLR8 plasmid (750 ng), NFκB-luc plasmid (375 ng) and a transfection reagent and incubated 24 h at 37° C. in a humidified 5% C02 atmosphere. Transfected cells were then detached with Trypsin-EDTA, washed in PBS and re-suspended in medium to a density of 1.67×10^5 cells/mL. Thirty microliters of cells were then dispensed into each well in 384-well plates, where 10 μL of compound in 4% DMSO was already present. Following 6 h incubation at 37° C., 5% CO2, the luciferase activity was determined by adding 15 μl of STEADY LITE PLUS substrate (PERKIN ELMER) to each well and readout performed on a VIEWLUX ULTRAHTS microplate imager (PERKIN ELMER). Dose response curves were generated from measurements performed in quadruplicates. Lowest effective concentrations (LEC) values, defined as the concentration that induces an effect which is at least two-fold above the standard deviation of the assay, were determined for each compound.

[2] = target: T2, human TLR8 (Homo sapiens, UniProt Q9NR97); assay: TLR8 NFκB-luc cellular reporter assay in transiently transfected HEK293 cells; assay type: cell-based; details: lowest effective concentration; HEK293 cells transfected with wild type TLR8 and NFκB-luc reporter, 6 h incubation
T2 construct: expressed in transfected cells; host or cells: HEK293
T2 sequence (Q9NR97 27-1041): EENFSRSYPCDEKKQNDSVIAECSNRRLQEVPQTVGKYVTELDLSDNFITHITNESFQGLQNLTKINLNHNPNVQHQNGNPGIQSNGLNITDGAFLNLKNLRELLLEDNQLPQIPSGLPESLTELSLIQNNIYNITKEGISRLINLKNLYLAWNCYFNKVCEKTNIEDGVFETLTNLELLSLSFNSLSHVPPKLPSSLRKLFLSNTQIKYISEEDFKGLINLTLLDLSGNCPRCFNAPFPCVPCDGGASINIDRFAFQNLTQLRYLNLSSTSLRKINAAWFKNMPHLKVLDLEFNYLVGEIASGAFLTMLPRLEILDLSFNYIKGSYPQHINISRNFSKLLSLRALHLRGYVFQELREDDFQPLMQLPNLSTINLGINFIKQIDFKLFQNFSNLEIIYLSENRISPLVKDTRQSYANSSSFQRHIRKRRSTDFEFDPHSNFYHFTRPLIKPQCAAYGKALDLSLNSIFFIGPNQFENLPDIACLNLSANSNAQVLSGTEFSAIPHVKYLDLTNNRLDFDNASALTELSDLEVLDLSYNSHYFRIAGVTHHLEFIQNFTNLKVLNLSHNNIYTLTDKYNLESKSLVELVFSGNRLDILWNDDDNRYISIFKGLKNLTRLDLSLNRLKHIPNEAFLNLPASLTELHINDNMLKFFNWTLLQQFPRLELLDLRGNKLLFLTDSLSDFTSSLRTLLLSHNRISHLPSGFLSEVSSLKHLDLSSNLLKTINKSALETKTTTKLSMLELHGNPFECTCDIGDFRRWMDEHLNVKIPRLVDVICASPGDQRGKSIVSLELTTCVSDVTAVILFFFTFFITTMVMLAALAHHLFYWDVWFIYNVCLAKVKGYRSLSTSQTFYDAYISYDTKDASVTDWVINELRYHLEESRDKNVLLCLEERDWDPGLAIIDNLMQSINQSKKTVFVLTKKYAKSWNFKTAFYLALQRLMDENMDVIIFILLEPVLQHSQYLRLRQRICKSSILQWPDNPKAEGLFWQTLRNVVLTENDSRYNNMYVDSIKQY
Protocol: as §1, §2

hTLR7-wt (LEC) [1]: > 100 µM | hTLR8-wt (LEC) [2]: 0.57 µM
Compound: CCCC[C@H](CO)Nc1nc(N)nc2c(C)ccc(F)c12 [Compound 26, (R)-2-((2-amino-5-fluoro-8-methylquinazolin-4-yl)amino)hexan-1-ol]

Reference: US11597704B2, “2,4-diaminoquinazoline derivatives and medical uses thereof” (Janssen Sciences Ireland Unlimited Company, priority 2018, dated 2023)
